# Reference: patent US5126336A, “Antibiotic C-3 catechol-substituted cephalosporin compounds, compositions and method of use thereof” (Bristol-Myers Squibb Company, priority 1990, dated 1992)
# Read-outs that look alike come from different tables or passages of the source.
# How the values were obtained:
# [1] = test system: Gn-Ib: Cephalothin(CET)-resistant E. coli (3) and Kl. pneumoniae (2); assay: MIC, two-fold serial agar dilution, Gn-Ib; format: cell-based; conditions: for MIC: Escherichia coli
# Protocol: (§1) Minimum inhibitory concentrations (MICs) of the present series of cephalosporins were determined against 32 strains of test organisms by two-fold serial agar dilution method in Mueller-Hinton agar. Geometric means of MICs were calculated against six groups of the test organisms which are classified as follows and summarized in Table 1.
# Gn-Ib Cephalothin(CET)-resistant E. coli (3) and Kl.
# [2] = test system: Gn-Ia: Cephalothin(CET)-sensitive E. coli (2), Kl. pneumoniae (1) and Pr. mirabilis (2); assay: MIC, two-fold serial agar dilution, Gn-Ia; format: cell-based; conditions: 5 strains; for MIC: read-out: Geometric mean of MIC
# Protocol: as §1
# Gn-Ia Cephalothin(CET)-sensitive E. coli (2), Kl.
# pneumoniae (1) and Pr. mirabilis (2).
# [3] = test system: Gn-III: Ps. aeruginosa (7); assay: MIC, two-fold serial agar dilution, Gn-III; format: cell-based; conditions: for MIC: Pseudomonas aeruginosa, read-out: Geometric mean of MIC
# Protocol: as §1
# Gn-III Ps. aeruginosa (7).
# [4] = test system: S. aureus Smith; assay: MIC, agar dilution; format: cell-based; conditions: S. aureus Smith (Table 3)
# Protocol: as §1
# (§2) In vivo antibacterial activity was determined against three bacterial infections (S. aureus Smith, E. coli Juhl and P. aeruginosa A9843A) by intramuscular administration to mice just after the bacterial challenge. PD50 values are summarized in Table 3 in comparsion with the MIC values against the corresponding organisms.
# (§3) Medium; MuellerHinton agar (pH = 7.2)
# (§4) Incubation temperature: 32° C., 18 hr
# (§5) Inoculum size; 10^6 cells/ml
# [5] = test system: P. aeruginosa A9843A; assay: MIC, agar dilution; format: cell-based
# Protocol: as §1, §2, §3, §4, §5
# [6] = test system: E. coli Juhl A15119; assay: MIC, agar dilution; format: cell-based; conditions: E. coli Juhl (Table 3)
# Protocol: as §1, §2, §3, §4, §5
# [7] = test system: Gp-Ia: Penicillin(PC)-sensitive S. aureus (5 strains); assay: MIC, two-fold serial agar dilution, Gp-Ia; format: cell-based; conditions: for MIC: Staphylococcus aureus, read-out: Geometric mean of MIC
# Protocol: as §1
# Gp-Ia Penicillin(PC)-sensitive S. aureus (5 strains).
# [8] = test system: Gp-Ib: Penicillin(PC)-resistant S. aureus (5); assay: MIC, two-fold serial agar dilution, Gp-Ib; format: cell-based; conditions: 5 strains; for MIC: Staphylococcus aureus, read-out: Geometric mean of MIC
# Protocol: as §1
# Gp-Ib Penicillin(PC)-resistant S. aureus (5).
# [9] = test system: S. aureus Smith; assay: In vivo antibacterial activity, S. aureus Smith infection; conditions: mice, im just after bacterial challenge; for ED50: Staphylococcus aureus, read-out: PD50
# Protocol: as §2
# [10] = test system: E. coli Juhl; assay: In vivo antibacterial activity, E. coli Juhl infection; conditions: mice, im just after bacterial challenge; for ED50: Escherichia coli, read-out: PD50
# Protocol: as §2
# [11] = test system: Gn-II: M.morganii (1), Ent. cloacae (2) and Ser. marcescens (2); assay: MIC, two-fold serial agar dilution, Gn-II; format: cell-based; conditions: for MIC: read-out: Geometric mean of MIC; for Geometric mean of MIC: Gn-II, 5 strains
# Protocol: as §1
# Gn-II M.morganii (1), Ent. cloacae (2) and Ser.
# [12] = test system: P. aeruginosa A9843A; assay: In vivo antibacterial activity, P. aeruginosa A9843A infection; parameters: species or system mice; conditions: for ED50: Pseudomonas aeruginosa, A9843A, in Mus musculus, im, read-out: PD50
# Protocol: as §2
# [13] = read-out: Geometric mean of MIC, Gn-Ib, 5 strains, Mueller-Hinton agar
# [14] = read-out: Geometric mean of MIC, second run, Gn-Ib, 5 strains
# [15] = Staphylococcus aureus, 18 h, read-out: MIC
# [16] = Pseudomonas aeruginosa, A9843A, 18 h
# [17] = Escherichia coli, JUHLA15119, 18 h, read-out: MIC
# [18] = Gn-III, 7 strains, Mueller-Hinton agar
SMILES,"MIC [1, 13] [µg/mL]","MIC [1, 14] [µg/mL]",MIC ([2]; Mueller-Hinton agar) [µg/mL],MIC ([2]; second run) [µg/mL],"MIC ([3]; second run, Gn-III, 7 strains) [µg/mL]","MIC [4, 15] [µg/mL]","MIC [5, 16] [µg/mL]","MIC [6, 17] [µg/mL]",MIC ([7]; Mueller-Hinton agar) [µg/mL],MIC ([7]; second run) [µg/mL],MIC ([8]; Mueller-Hinton agar) [µg/mL],MIC ([8]; second run) [µg/mL],ED50 [9] [mg/kg],ED50 [10] [mg/kg],MIC [11] [µg/mL],Geometric mean of MIC ([11]; second run) [µg/mL],ED50 [12] [mg/kg],"MIC [3, 18] [µg/mL]",other results
"CC(C)(O/N=C(\C(=O)NC1C(=O)N2C(C(=O)O)=C(/C=C/Cn3ccc4cc(=O)c(O)cc-4c3)CS[C@H]12)c1csc(N)n1)C(=O)O (stereo partly drawn) [Iv, 7-[(Z)-2-(2-Aminothiazol-4-yl)-2-(1-carboxy-1-methylethoxyimino)acetamido]-3-[(E)-3-(2,6-dihydro-7-hydroxy-6-oxo-isoquinolin-2-yl)-1-propen-1-yl]-3-cephem-4-carboxylic acid]",0.0072,0.0083,0.017,0.0094,0.15,12.5,0.1,0.1,12.5,16,16,16,0.98,0.019,0.076,0.076,0.17,,MIC [3]: 0.11 µg/mL
"CC(C)(O/N=C(\C(=O)NC1C(=O)N2C(C(=O)[O-])=C(/C=C\C[N+]3(C)Cc4cc(O)c(O)cc4C3)CS[C@H]12)c1csc(N)n1)C(=O)O (stereo partly drawn) [Compound Ib, 7-[(Z)-2-(2-aminothiazol-4-yl)-2-(1-carboxy-1-methylethoxy-imino)acetamido]-3-[(Z)-3-(5,6-dihydroxy-2-methyl-2-isoindolinio)-1-propen-1-yl]-3-cephem-4-carboxylate]",0.26,,0.46,,,25,1.6,0.8,25,,50,,3.8,0.1,0.91,,2,1.4,
"CC(C)(O/N=C(\C(=O)NC1C(=O)N2C(C(=O)[O-])=C(/C=C/C[N+]3(C)Cc4cc(O)c(O)cc4C3)CSC12)c1csc(N)n1)C(=O)O (stereo not drawn) [Compound Ia, 7-[(Z)-2-(2-Aminothiazol-4-yl)-2-(1-carboxy-1-methylethoxy-imino)acetamido]-3-[(E)-3-(5,6-dihydroxy-2-methyl-2-iso-indolinio)-1-propen-1-yl]-3-cephem-4-carboxylate]",0.23,0.23,0.2,0.23,0.33,12.5,1.6,0.8,12.5,13,12.5,13,0.86,0.008,0.69,0.69,2,1.3,
"CO/N=C(\C(=O)NC1C(=O)N2C(C(=O)O)=C(/C=C/Cn3ccc4cc(=O)c(O)cc-4c3)CS[C@H]12)c1csc(N)n1 (stereo partly drawn) [Iw, 7-[(Z)-2-(2-Aminothiazol-4-yl)-2-methoxyimino-acetamido]-3-[(E)-3-(2,6-dihydro-7-hydroxy-6-oxo-isoquino-lin-2-yl)-1-propen-1-yl]-3-cephem-4-carboxylic acid]",,,,,,,,,,,,,,,,,,,"Geometric mean of MIC ([1]; Gn-Ib, 5 strains, Mueller-Hinton agar): 0.022 µg/mL; Geometric mean of MIC ([2]; Mueller-Hinton agar): 0.015 µg/mL; Geometric mean of MIC [3, 18]: 13.0 µg/mL; MIC [4]: 0.8 µg/mL; MIC ([5]; P. aeruginosa 9843A (Table 3)): 12.5 µg/mL; MIC [6]: 0.1 µg/mL; Geometric mean of MIC ([7]; Mueller-Hinton agar): 0.8 µg/mL; Geometric mean of MIC ([8]; Mueller-Hinton agar): 1.4 µg/mL; PD50 [9]: 0.18 mg/kg; PD50 [10]: 0.19 mg/kg; Geometric mean of MIC ([11]; Mueller-Hinton agar): 0.13 µg/mL; PD50 ([12]; mice, im just after bacterial challenge, P. aeruginosa 9843A): 0.39 mg/kg"
